In patent US20150057246A1, “SILYL-CONTAINING HETEROCYCLIC COMPOUNDS AND METHODS OF USE THEREOF FOR THE TREATMENT OF VIRAL DISEASES” (priority 2012, published 2015):
Like-named read-outs stand apart in the source and are kept apart here.

Assays:
HCV 1a replicon = assay: Cell-based HCV replicon assay (TaqMan), genotype 1a replicon; settings: HCV genotype 1a replicon cells, replicon RNA by real time PCR, day 3, EC90 = concentration for ΔCT=3.2 over baseline
Protocol: (§1) Measurement of inhibition by compounds of the present invention was performed using the HCV replicon system. Several different replicons encoding different HCV genotypes or mutations were used. In addition, potency measurements were made using different formats of the replicon assay, including different ways of measurements and different plating formats. See Jan M. Vrolijk et al., A replicons-based bioassay for the measurement of interferons in patients with chronic hepatitis C, 110 J. VIROLOGICAL METHODS 201 (2003); Steven S. Carroll et al., Inhibition of Hepatitis C Virus RNA Replication by 2′-Modified Nucleoside Analogs, 278(14) J. BIOLOGICAL CHEMISTRY 11979 (2003). However, the underlying principles are common to all of these determinations, and are outlined below.
(§2) TaqMan®-Based Assay Protocol:
(§3) Compounds of the present invention were assayed for cell-based anti-HCV activity using the following protocol. Replicon cells were seeded at 5000 cells/well in 96-well collagen I-coated Nunc plates in the presence of the test compound. Various concentrations of test compound, typically in 10 serial 2-fold dilutions, were added to the assay mixture, with the starting concentration ranging from 250 μM to 1 μM. The final concentration of DMSO was 0.5%, fetal bovine serum was 5%, in the assay media. Cells were harvested on day 3 by the addition of 1× cell lysis buffer (Ambion cat #8721). The replicon RNA level was measured using real time PCR (TaqMan® assay). The amplicon was located in 5B. The PCR primers were: 5B.2F, ATGGACAGGCGCCCTGA (SEQ. ID NO. 1); 5B.2R, […] (SEQ. ID NO. 2); the probe sequence was FAM-labeled CACGCCATGCGCTGCGG (SEQ. ID NO. 3). GAPDH RNA was used as endogenous control and was amplified in the same reaction as NS5B (multiplex PCR) using primers and VIC-labeled probe recommended by the manufacturer (PE Applied Biosystem). The real-time […] reactions were run on ABI PRISM 7900HT Sequence Detection System using the following program: 48° C. for 30 minutes, 95° C. for 10 minutes, 40 cycles of 95° C. for 15 sec, 60° C. for 1 minute. The ΔCT values (CT5B-CTGAPDH) were plotted against the concentration of test compound and fitted to the sigmoid dose-response model using XLfit4 (MDL). EC50 was defined as the concentration of inhibitor necessary to achieve ΔCT=1 over the projected baseline; EC90 the concentration necessary to achieve ΔCT=3.2 over the baseline. Alternatively, to quantitate the absolute amount of replicon RNA, a standard curve was established by including serially diluted T7 transcripts of replicon RNA in the Taqman assay. All TaqMan® reagents were from PE Applied Biosystems. Such an assay procedure was described in detail in e.g. Malcolm et al., Antimicrobial Agents and Chemotherapy 50: 1013-1020 (2006).
(§4) HCV replicon EC50 assay data for various replicons and mutants was calculated for selected compounds of the present invention using this method and is provided in the tables above herein.

HCV 1a Y93H replicon = assay: Cell-based HCV replicon assay (TaqMan), 1a Y93H mutant replicon; settings: EC90 = concentration for ΔCT=3.2 over baseline
Protocol: as §1, §2, §3, §4

HCV 2b replicon = assay: Cell-based HCV replicon assay (TaqMan), genotype 2b replicon; settings: EC90 = concentration for ΔCT=3.2 over baseline
Protocol: as §1, §2, §3, §4

[1] = Hepatitis C virus, 72 h, read-out: 1a Y93H EC90, HCV 1a Y93H mutant replicon cells, replicon RNA by real time PCR, day 3
[2] = Hepatitis C virus, 72 h, read-out: 2b EC90, HCV genotype 2b replicon cells, replicon RNA by real time PCR, day 3

Compound	EC90 (HCV 1a replicon; Hepatitis C virus, 72 h)	EC90 (HCV 1a Y93H replicon; [1])	EC90 (HCV 2b replicon; [2])	EC90 (HCV 1a replicon)	EC90 (HCV 1a Y93H replicon; read-out: 1a Y93H EC90, HCV 1a Y93H mutant replicon cells, replicon RNA by real time PCR, day 3)	EC90 (HCV 2b replicon; read-out: 2b EC90, HCV genotype 2b replicon cells, replicon RNA by real time PCR, day 3)
COC(=O)N[C@@H](Cc1ccccc1)C(=O)N1C[Si](C)(C)C[C@H]1c1ncc(-c2ccc(-c3ccc4c(ccc5nc([C@@H]6CCCN6C(=O)[C@H](Cc6ccccc6)NC(=O)OC)[nH]c54)c3)cc2)[nH]1 [Compound 46]	4.75 nM	> 1000 nM	> 1000 nM	–	–	–
CC[C@H](C)[C@H](NC(=O)OC)C(=O)N1C[Si](C)(C)C[C@H]1c1ncc(-c2ccc(-c3ccc4c(ccc5nc([C@@H]6CCCN6C(=O)[C@@H](NC(=O)OC)[C@@H](C)CC)[nH]c54)c3)cc2)[nH]1 [Compound 47]	–	–	–	0.59 nM	953 nM	578 nM
CCCC(NC(=O)OC)C(=O)N1C[Si](C)(C)C[C@H]1c1ncc(-c2ccc(-c3ccc4c(ccc5nc([C@@H]6CCCN6C(=O)[C@H](CCC)NC(=O)OC)[nH]c54)c3)cc2)[nH]1 (some centres unmarked) [Compound 48]	0.64 nM	761 nM	882 nM	–	–	–
COC(=O)N[C@H](C)C(=O)N1C[Si](C)(C)C[C@H]1c1ncc(-c2ccc(-c3ccc4c(ccc5nc([C@@H]6CCCN6C(=O)[C@@H](C)NC(=O)OC)[nH]c54)c3)cc2)[nH]1 [Compound 49]	386 nM	> 1000 nM	> 1000 nM	–	–	–
COC(=O)N[C@@H](C(=O)N1C[Si](C)(C)C[C@H]1c1ncc(-c2ccc(-c3ccc4c(ccc5nc([C@@H]6CCCN6C(=O)[C@H](NC(=O)OC)C6CC6)[nH]c54)c3)cc2)[nH]1)C1CC1 [Compound 50]	> 1000 nM	> 1000 nM	> 1000 nM	–	–	–
COC(=O)N[C@H](C(=O)N1C[Si](C)(C)C[C@H]1c1ncc(-c2ccc(-c3ccc4c(ccc5nc([C@@H]6CCCN6C(=O)[C@@H](NC(=O)OC)C6CC6)[nH]c54)c3)cc2)[nH]1)C1CC1 [Compound 51]	0.51 nM	> 1000 nM	> 1000 nM	–	–	–
COC(=O)N[C@H](C(=O)N1C[Si](C)(C)C[C@H]1c1ncc(-c2ccc(-c3ccc4c(ccc5nc([C@@H]6CCCN6C(=O)[C@@H](NC(=O)OC)C6CCCOCC6)[nH]c54)c3)cc2)[nH]1)C1CCCOCC1 (some centres unmarked) [Compound 52]	2.3 nM	> 1000 nM	37 nM	–	–	–
COC(=O)N[C@@H](C(=O)N1C[Si](C)(C)C[C@H]1c1ncc(-c2ccc(-c3ccc4c(ccc5nc([C@@H]6CCCN6C(=O)[C@H](NC(=O)OC)c6ccccc6)[nH]c54)c3)cc2)[nH]1)c1ccccc1 [Compound 53]	7.27 nM	> 1000 nM	> 1000 nM	–	–	–
COC(=O)N1CCC[C@H]1C(=O)N1C[Si](C)(C)C[C@H]1c1ncc(-c2ccc(-c3ccc4c(ccc5nc([C@@H]6CCCN6C(=O)[C@@H]6CCCN6C(=O)OC)[nH]c54)c3)cc2)[nH]1 [Compound 54]	> 1000 nM	> 1000 nM	> 1000 nM	–	–	–
CC(C)(C)OC(=O)N1C[Si](C)(C)C[C@H]1c1nc2ccc3cc(-c4ccc(-c5cnc([C@@H]6C[C@H]7C[C@H]7N6C(=O)OC(C)(C)C)[nH]5)cc4)ccc3c2[nH]1 [Compound 97]	–	> 1000 nM	–	> 1 nM	–	–
COC(=O)N[C@H](C(=O)N1C[Si](C)(C)C[C@H]1c1nc2ccc3cc(-c4ccc(-c5[nH]c([C@@H]6C[C@H]7C[C@H]7N6C(=O)[C@@H](NC(=O)OC)C(C)C)nc5Cl)cc4)ccc3c2[nH]1)C(C)C [Compound 102]	0.048 nM	140 nM	–	–	–	–
CC(C)(C)OC(=O)N1C[Si](C)(C)C[C@H]1c1nc2ccc3cc(-c4ccc(-c5nc(Cl)c([C@@H]6C[C@H]7C[C@H]7N6C(=O)OC(C)(C)C)[nH]5)cc4)ccc3c2[nH]1 [Compound 109]	> 1 nM	> 100 nM	–	–	–	–
CC(C)(C)OC(=O)N1CCC[C@H]1c1ncc(-c2ccc3cc(-c4ccc5c(ccc6nc([C@@H]7C[Si](C)(C)CN7C(=O)OC(C)(C)C)[nH]c65)c4)ccc3c2)[nH]1 [Compound 110]	> 1000 nM	> 1000 nM	–	–	–	–
